In patent publication US10716791B2, “Inhibitors of peptidyl arginine deiminase (PAD) enzymes and uses thereof” (UNIVERSITY HEALTH NETWORK, priority 2015, dated 2020):
Where two headings read alike, the source gives them in different places. Each block holds one compound with its values, some of them ahead of it.

Tests used:
PAD4 [1] = target: T1, PAD4 (Homo sapiens (Human), UniProt Q9UM07); assay: Inhibition of PAD activity (Example 53), PAD4; settings: for PAD4 Ki ± std error / Ki: Table 5; for Ki: read-out: PAD4 Ki ± std error; for remaining activity at 100 µM / remaining activity at 1000 µM: read-out: Remaining activity of PAD4
Method: (§1) Materials: PAD1, PAD2, PAD3 and PAD4 were purchased from commercial sources. Assay buffer: 50 mM Tris pH 7.5, 100 mM NaCl, 10 mM CaCl2, 5 mM DTT.
(§2) The inhibitor (12.5 μL of stock) was mixed with appropriate amount of substrate (BAEE) stock solution and preincubated at 37° C. for a period in the range of 0-60 min. The reaction was initiated by the addition of the enzyme. The reaction samples were incubated for a period in the range of 0-60 min. […] Samples were cooled on ice, vortexed and centrifuged. 200 μL aliquots were transferred to the 96-well plate and the absorbance was measured at 530 nm and the remaining activity was computed. The remaining activity data were plotted versus inhibitor concentration and fitted to the dose-response equation to calculate IC50.

PAD2 = PAD2 (Mus musculus (Mouse), UniProt Q08642); assay: Inhibition of PAD activity (Example 53), PAD2; settings: for remaining activity at 100 µM / remaining activity at 1000 µM: read-out: Remaining activity of PAD2
Method: as §1, §2

PAD1 [2] = target: T2, PAD1 (Homo sapiens (Human), UniProt Q9ULC6); assay: Inhibition of PAD activity (Example 53), PAD1; settings: Table 5; for Ki: read-out: PAD1 Ki ± std error
Method: as §1, §2

animal models of MS = settings: cited from earlier work
mPAD2 = mPAD2 (Mus musculus (Mouse), UniProt Q08642); assay: Enzyme inhibition kinetics (Example 54), mPAD2; type: biochemical; settings: for Ki: Table 6; for Selectivity ratio of inhibition, mPAD2 (PAD4): mPAD2 versus PAD4
PADs = assay: Enzymatic assays with hPAD1, mPAD2 and hPAD4, stated for PADs overall; type: biochemical; settings: summary of Table 6; read-out: Ki, activity towards PADs
PAD4 [3] = target: T1, PAD4; assay: Enzyme inhibition kinetics (Example 54), hPAD4; type: biochemical; settings: for Ki: Table 6
PAD1 [4] = target: T2, PAD1; assay: Enzyme inhibition kinetics (Example 54), hPAD1; type: biochemical; settings: for Ki: Table 6
CHO cells = assay: CHO cell toxicity assay; type: cell-based; settings: Cricetulus griseus
PAD enzymes = settings: most potent non-peptidic compounds from the literature; cited from earlier work
[5] = read-out: PAD2 Ki ± std error, Table 5
[6] = read-out: PAD2 inhibition constant Ki ± Std Error, Table 1

Sequence of PAD2 (Q08642 whole entry): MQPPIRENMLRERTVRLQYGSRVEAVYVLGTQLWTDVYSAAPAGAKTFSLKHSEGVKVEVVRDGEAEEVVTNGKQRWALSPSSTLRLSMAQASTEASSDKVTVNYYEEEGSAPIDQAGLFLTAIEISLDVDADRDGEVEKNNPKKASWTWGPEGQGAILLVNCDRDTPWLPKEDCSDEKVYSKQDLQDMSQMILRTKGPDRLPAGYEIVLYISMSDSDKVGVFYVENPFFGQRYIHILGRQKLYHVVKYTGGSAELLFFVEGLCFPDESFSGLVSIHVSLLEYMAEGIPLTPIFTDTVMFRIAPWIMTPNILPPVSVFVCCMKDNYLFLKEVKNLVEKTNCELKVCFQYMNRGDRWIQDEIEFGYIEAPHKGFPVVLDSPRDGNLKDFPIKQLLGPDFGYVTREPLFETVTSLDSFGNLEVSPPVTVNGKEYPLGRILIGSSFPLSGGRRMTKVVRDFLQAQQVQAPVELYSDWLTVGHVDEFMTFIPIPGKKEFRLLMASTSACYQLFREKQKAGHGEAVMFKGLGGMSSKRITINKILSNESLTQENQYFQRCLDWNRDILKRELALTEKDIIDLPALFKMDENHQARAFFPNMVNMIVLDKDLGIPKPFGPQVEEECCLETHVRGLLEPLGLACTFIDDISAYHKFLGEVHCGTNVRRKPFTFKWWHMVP
Sequence of mPAD2 (Q08642 whole entry): as above
T2 sequence (Q9ULC6 whole entry): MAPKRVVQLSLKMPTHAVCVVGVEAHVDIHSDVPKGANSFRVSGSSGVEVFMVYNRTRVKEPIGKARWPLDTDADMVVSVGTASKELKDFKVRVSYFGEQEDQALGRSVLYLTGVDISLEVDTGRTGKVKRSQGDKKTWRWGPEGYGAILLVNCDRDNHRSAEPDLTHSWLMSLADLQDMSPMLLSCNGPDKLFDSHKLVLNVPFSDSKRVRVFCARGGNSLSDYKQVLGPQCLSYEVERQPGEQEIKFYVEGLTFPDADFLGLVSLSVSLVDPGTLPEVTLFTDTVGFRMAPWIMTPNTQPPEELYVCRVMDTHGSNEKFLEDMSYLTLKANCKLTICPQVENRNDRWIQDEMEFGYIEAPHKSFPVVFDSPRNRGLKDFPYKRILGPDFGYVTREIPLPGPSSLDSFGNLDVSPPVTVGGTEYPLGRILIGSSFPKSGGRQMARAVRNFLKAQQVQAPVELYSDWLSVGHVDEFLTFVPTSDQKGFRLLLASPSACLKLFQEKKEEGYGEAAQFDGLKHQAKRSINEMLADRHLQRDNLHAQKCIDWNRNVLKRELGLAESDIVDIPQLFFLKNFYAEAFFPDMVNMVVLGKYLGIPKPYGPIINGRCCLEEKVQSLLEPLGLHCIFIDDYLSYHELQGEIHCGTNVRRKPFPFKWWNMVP
T1 sequence (Q9UM07 whole entry): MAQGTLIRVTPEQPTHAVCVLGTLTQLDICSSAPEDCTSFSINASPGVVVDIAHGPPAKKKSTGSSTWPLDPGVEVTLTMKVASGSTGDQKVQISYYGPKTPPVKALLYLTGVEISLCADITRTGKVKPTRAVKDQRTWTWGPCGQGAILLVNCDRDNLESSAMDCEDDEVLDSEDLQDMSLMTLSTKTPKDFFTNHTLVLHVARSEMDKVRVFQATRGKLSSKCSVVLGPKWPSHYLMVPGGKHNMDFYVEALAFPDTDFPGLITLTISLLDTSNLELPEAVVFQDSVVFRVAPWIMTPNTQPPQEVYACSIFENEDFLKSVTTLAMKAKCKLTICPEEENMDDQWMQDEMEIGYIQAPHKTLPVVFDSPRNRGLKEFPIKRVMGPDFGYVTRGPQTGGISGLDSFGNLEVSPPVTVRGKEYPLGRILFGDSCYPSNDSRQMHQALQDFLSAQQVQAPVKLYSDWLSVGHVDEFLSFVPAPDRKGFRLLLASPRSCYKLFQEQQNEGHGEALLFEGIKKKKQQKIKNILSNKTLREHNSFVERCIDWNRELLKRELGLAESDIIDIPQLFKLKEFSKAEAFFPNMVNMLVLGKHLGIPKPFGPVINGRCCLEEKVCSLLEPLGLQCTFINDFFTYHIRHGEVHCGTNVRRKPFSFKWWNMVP

Structure (SMILES): N=C(N)CCl [Compound 2CA, 2-chloroacetamidine]
MS disease (animal models of MS; four animal models of MS): attenuated MS disease
PAD activity in the brain (animal models of MS; four animal models of MS): decreased PAD activity in the brain
amount of citrullinated protein (animal models of MS; four animal models of MS): decreased the amount of citrullinated protein
disease after therapy cessation at 6 months (animal models of MS; one murine model): fully progressive clinical disease re-emerged promptly
disease with early and prolonged administration (animal models of MS; one murine model): essentially prevented the disease

Structure (SMILES): O=C(N[C@@H](CN1CCNCC1)C(=O)NCc1ccccc1)c1ccco1 [KP-227, (S)—N-(1-(Benzylamino)-1-oxo-3-(piperazin-1-yl)propan-2-yl)furan-2-carboxamide]
remaining activity at 100 µM (PAD4 [1]): 100 ± 1.3%
remaining activity at 1000 µM (PAD4 [1]): 82.2 ± 2.4%
remaining activity at 100 µM (PAD2): 63.7 ± 0.6%
remaining activity at 1000 µM (PAD2): 68.2 ± 2.3%

Structure (SMILES): O=C(N[C@@H](CCn1ccnc1)C(=O)NCc1ccccc1)c1ccco1 [KP-301, (S)—N-(1-(Benzylamino)-4-(1 [H]-imidazol-1-yl)-1-oxobutan-2-yl) furan-2-carboxamide]
Ki (mPAD2): > 10000 µM
Ki (PADs): 200 to 500 µM
PAD4 Ki ± std error (PAD4 [1]): No inhibition up to 10 mM
PAD2 Ki ± std error (PAD2; Table 5): No inhibition up to 10 mM
PAD1 Ki ± std error (PAD1 [2]): No inhibition up to 10 mM
Ki (PAD4 [3]): > 10000 µM
Ki (PAD1 [4]): > 10000 µM

Structure (SMILES): CC(C)NC(=O)[C@H](CN1CCN(C)CC1)NC(=O)N1CCCCC1 [KP-290]
PAD4 Ki ± std error (PAD4 [1]): No inhibition up to 10 mM

Structure (SMILES): COC(=O)[C@H](CCN1CCNCC1)NC(=O)c1ccco1 [KP-226, (S)-Methyl 2-(furan-2-carboxamido)-4-(piperazin-1-yl)butanoate]
Ki (PAD2; [5]): 286 ± 27 µM
Ki (PAD2; [6]): 19.7 ± 2 µM

Structure (SMILES): CC(C)NC(=O)[C@H](CCN1CCN(C)CC1)NC(=O)N1CCOCC1 [KP-287, (S)—N-(1-(Isopropylamino)-4-(4-methylpiperazin-1-yl)-1-oxobutan-2-yl)morpholine-4-carboxamide]
IC50 (CHO cells): > 2000 µM
Ki (mPAD2): > 10000 µM
Ki (PADs): 200 to 500 µM
PAD4 Ki ± std error (PAD4 [1]): No inhibition up to 10 mM
Ki (PAD2; [5]): 600 ± 1330 µM
PAD1 Ki ± std error (PAD1 [2]): Some inhibition but IC50 not calculated - no Ki
Ki (PAD4 [3]): > 10000 µM
Ki (PAD1 [4]): > 10000 µM

Structure (SMILES): CC(C)NC(=O)[C@H](CCn1ccnc1)NC(=O)c1ccco1 [KP-286, (S)—N-(4-(1[H]-imidazol-1-yl)-1-(isopropylamino)-1-oxobutan-2-yl) furan-2-carboxamide]
IC50 (CHO cells): 546 ± 136 µM
Ki (mPAD2): 554 ± 93 µM
Ki (PAD2; [5]): 554 ± 93 µM
Ki (PAD1 [2]): 2500 ± 1780 µM
Ki (PAD1 [4]): 964 ± 689 µM

Structure (SMILES): O=C(N[C@@H](CC(=O)N1CCNCC1)C(=O)Nc1ccccc1)c1ccco1 [KP-230]
remaining activity at 100 µM (PAD4 [1]): 96.9 ± 7.6%
remaining activity at 1000 µM (PAD4 [1]): 82.4 ± 1.7%
remaining activity at 100 µM (PAD2): 55.1 ± 0.5%
remaining activity at 1000 µM (PAD2): 33.5 ± 0.4%

Structure (SMILES): COC(=O)[C@H](CN1CCNCC1)NC(=O)C1CCCCC1 [KP-224]
Ki (PAD2; [6]): 21.3 ± 3.4 µM

Structure (SMILES): Cn1cccc1C(=O)N[C@@H](Cn1ccnc1)C(=O)NCc1ccccc1 [KP-305]
Ki (PAD2; [5]): 58 ± 5 µM
Ki (PAD1 [2]): 147 ± 52 µM

Structure (SMILES): CN(C)[C@@H]1C(O)=C(C(N)=O)C(=O)[C@@]2(O)C(O)=C3C(=O)c4c(O)ccc(Cl)c4[C@@](C)(O)[C@H]3C[C@@H]12 [chlortetracycline]
IC50 (PAD enzymes): 100 µM

Continued, in another order:

PAD4 Ki ± std error (PAD4 [1]): No inhibition up to 10 mM
PAD2 Ki ± std error (PAD2; Table 5): No inhibition up to 10 mM
PAD1 Ki ± std error (PAD1 [2]): No inhibition up to 10 mM
Structure (SMILES): CC(C)(C)OC(=O)N[C@@H](CN=[N+]=[N-])C(=O)NCc1ccccc1 [KP-306]

Ki (PAD4 [1]): 1450 ± 187 µM
Ki (PAD2; [5]): 1430 ± 186 µM
Ki (PAD1 [2]): 3430 ± 1940 µM
Structure (SMILES): CC(C)(C)OC(=O)N[C@H](CCN=[N+]=[N-])C(=O)NCc1ccccc1 [KP-310]

remaining activity at 100 µM (PAD4 [1]): 78.7 ± 9.5%
remaining activity at 1000 µM (PAD4 [1]): 62.2 ± 2.7%
remaining activity at 100 µM (PAD2): 86.6 ± 3%
remaining activity at 1000 µM (PAD2): 70.8 ± 1.7%
Structure (SMILES): COC(=O)[C@H](CN1CCNCC1)NC(=O)c1ccco1 [KP-225, (S)-Methyl 2-(furan-2-carboxamido)-3-(piperazin-1-yl)propanoate]

Ki (PAD4 [1]): ~14900 µM
Structure (SMILES): CC(C)NC(=O)[C@H](Cn1ccnc1)NC(=O)N1CCOCC1 [KP-292]

Ki (mPAD2): 1000 ± 876 µM
Selectivity ratio of inhibition, mPAD2 (PAD1) (mPAD2; mPAD2 versus PAD1): 0.4
Selectivity ratio of inhibition, mPAD2 (PAD4) (mPAD2): 0.6
Ki (PAD4 [1]): 591 ± 77 µM
Ki (PAD2; [5]): 176 ± 62 µM
Ki (PAD1 [2]): 914 ± 59 µM
Ki (PAD4 [3]): 591 ± 77 µM
Selectivity ratio of inhibition, hPAD4 (PAD1) (PAD4 [3]; hPAD4 versus PAD1): 0.6
inhibitor efficacy towards hPAD1 in comparison to other isozymes (PAD1 [4]): at least 3 fold
Ki (PAD1 [4]): 353 ± 23 µM
Selectivity ratio of inhibition, hPAD1 (PAD2) (PAD1 [4]; hPAD1 versus PAD2, ratios greater than 2-fold suggest selectivity): 2.8
Selectivity ratio of inhibition, hPAD1 (PAD4) (PAD1 [4]; hPAD1 versus PAD4): 1.6
Structure (SMILES): CC(C)NC(=O)[C@H](CCn1cnc(CC#N)c1)NC(=O)c1ccco1 [KP-288, (S)—N-(4-(4-(Cyanomethyl)-1[H]-imidazol-1-yl)-1-(isopropylamino)-1-oxobutan-2-yl)furan-2-carboxamide]
IC50 (CHO cells): > 2000 µM

Ki (mPAD2): 1840 ± 2420 µM
Selectivity ratio of inhibition, mPAD2 (PAD4) (mPAD2): 0.3 (PAD4)
Ki (PAD4 [1]): 488 ± 47 µM
Ki (PAD2; [5]): 1790 ± 2420 µM
Ki (PAD4 [3]): 488 ± 47 µM
Selectivity ratio of inhibition, hPAD4 (PAD2) (PAD4 [3]; hPAD4 versus PAD2): 3.7 (PAD2)
Structure (SMILES): CC(C)NC(=O)[C@H](CCN1CCN(C)CC1)NC(=O)c1ccco1 [KP-289, (S)—N-(1-(Isopropylamino)-4-(4-methylpiperazin-1-yl)-1-oxobutan-2-yl)furan-2-carboxamide]
IC50 (CHO cells): > 2000 µM

Ki (PAD4 [1]): 1240 ± 1390 µM
Ki (PAD2; [5]): 662 ± 210 µM
Ki (PAD1 [2]): 785 ± 384 µM
Structure (SMILES): COC(=O)[C@H](Cn1ccnc1)NC(=O)c1ccco1 [KP-298]

PAD4 Ki ± std error (PAD4 [1]): No inhibition up to 10 mM
PAD2 Ki ± std error (PAD2; Table 5): No inhibition up to 10 mM
PAD1 Ki ± std error (PAD1 [2]): No inhibition up to 10 mM
Structure (SMILES): CC(C)(C)OC(=O)N[C@H](CCO)C(=O)NCc1ccccc1 [KP-311]

remaining activity at 100 µM (PAD4 [1]): 96.4 ± 10.4%
remaining activity at 1000 µM (PAD4 [1]): 82.1 ± 7.2%
remaining activity at 100 µM (PAD2): 58.6 ± 3.6%
remaining activity at 1000 µM (PAD2): 31.8 ± 4.9%
Structure (SMILES): O=C(N[C@@H](CCN1CCNCC1)C(=O)NCc1ccccc1)c1ccco1 [KP-228, (S)—N-(1-(Benzylamino)-1-oxo-4-(piperazin-1-yl)butan-2-yl)furan-2-carboxamide]

Ki (PAD1 [2]): 77700 ± 91500 µM
Ki (PAD1 [4]): > 10000 µM
Structure (SMILES): O=C(N[C@@H](CCn1ccnn1)C(=O)NCc1ccccc1)c1ccc(F)cc1 [KP-316, (S)—N-(1-(Benzylamino)-1-oxo-4-(1[H]-1,2,3-triazol-1-yl)butan-2-yl)-4-fluorobenzamide]
PAD4 Ki ± std error (PAD4 [1]): Some inhibition but IC50 can't be calculated - no Ki
PAD2 Ki ± std error (PAD2; Table 5): Some inhibition but IC50 can't be calculated - no Ki

remaining activity at 100 µM (PAD4 [1]): 100 ± 5.5%
remaining activity at 1000 µM (PAD4 [1]): 100 ± 2.6%
remaining activity at 100 µM (PAD2): 54 ± 2.7%
remaining activity at 1000 µM (PAD2): 63.3 ± 2%
Structure (SMILES): O=C(Nc1ccccc1)[C@H](CC(=O)N1CCNCC1)NC(=O)N1CCOCC1 [KP-229]

remaining activity at 100 µM (PAD4 [1]): 100 ± 4.6%
remaining activity at 1000 µM (PAD4 [1]): 82.3 ± 3.7%
remaining activity at 100 µM (PAD2): 44.4 ± 0.5%
remaining activity at 1000 µM (PAD2): 45.5 ± 1.1%
Structure (SMILES): O=C(N[C@@H](CCO)C(=O)Nc1ccccc1)OCc1ccccc1 [KP-231]

Ki (mPAD2): > 10000 µM
PAD4 Ki ± std error (PAD4 [1]): No inhibition up to 10 mM
PAD2 Ki ± std error (PAD2; Table 5): No inhibition up to 10 mM
Ki (PAD4 [3]): > 10000 µM
Structure (SMILES): CC(C)NC(=O)[C@H](CCN1CCN(C)CC1)NC(=O)C1CCCCC1 [KP-295, (S)—N-(1-(Isopropylamino)-4-(4-methylpiperazin-1-yl)-1-oxobutan-2yl) cyclohexanecarboxamide]

PAD4 Ki ± std error (PAD4 [1]): No inhibition up to 10 mM
PAD2 Ki ± std error (PAD2; Table 5): No inhibition up to 10 mM
PAD1 Ki ± std error (PAD1 [2]): No inhibition up to 10 mM
Structure (SMILES): CC(C)NC(=O)[C@H](CN1CCN(C)CC1)NC(=O)N1CCOCC1 [KP-291]

Ki (PAD4 [1]): 1070 ± 427 µM
Ki (PAD2; [5]): 739 ± 339 µM
PAD1 Ki ± std error (PAD1 [2]): No inhibition up to 10 mM
Structure (SMILES): O=C(N[C@@H](Cn1ccnc1)C(=O)OCc1ccccc1)c1ccco1 [KP-300]

PAD4 Ki ± std error (PAD4 [1]): No inhibition up to 10 mM
Ki (PAD2; [5]): 5300 ± 7830 µM
Structure (SMILES): O=C(NCc1ccccc1)[C@H](Cn1ccnc1)NC(=O)N1CCCCC1 [KP-304]
